In assay [1] the target is T1, Cannabinoid receptor 1 (Homo sapiens, UniProt P21554). Put plainly: Displacement of [3H]CP55940 from human CB1 receptor expressed in CHO cell membrane incubated for 2 hrs. In kind it is cell membranes. On the technique in general: In a radioligand displacement assay an active substance lowers the binding of a labelled ligand.
Assay [2] concerns the target T1, Cannabinoid receptor 1. Put plainly: Displacement of [3H]CP55940 from human CB1 receptor expressed in CHO cell membrane at 0.001 to 10 uM incubated for 2 hrs relative to control. Conditions: dose 0.001-10 µM. In kind it is cell membranes.
Assay [3] has as its target T2, Cannabinoid receptor 2 (Homo sapiens, UniProt P34972). Put plainly: Displacement of [3H]CP55940 from human CB2 receptor expressed in CHO cell membrane incubated for 2 hrs. In kind it is cell membranes.
For assay [4], the target named is T2, Cannabinoid receptor 2. Put plainly: Displacement of [3H]CP55940 from human CB2 receptor expressed in CHO cell membrane at 0.001 to 10 uM incubated for 2 hrs relative to control. In kind it is cell membranes. The settings on record: filed as agonist, dose 0.001-10 µM.
Assay [5] has as its target T2, Cannabinoid receptor 2. Put plainly: Agonist activity at human CB2 receptor expressed in CHO cells assessed as inhibition of forskolin-induced cAMP production at 10 uM incubated for 90 mins by HitHunter assay. Conditions: filed as agonist. The format is functional, cell-based.
Assay [6] addresses T1, Cannabinoid receptor 1. As to the kind of experiment: Agonist activity at human CB1 receptor expressed in CHO cells assessed as inhibition of forskolin-induced cAMP production incubated for 90 mins in presence of CP55940 ligand by HitHunter assay. In kind it is functional, cell-based. On the technique in general: cAMP levels reflect the balance of adenylyl cyclase and phosphodiesterase activity.

For assay [7], the target named is T1, Cannabinoid receptor 1. Put plainly: Agonist activity at human CB1 receptor expressed in CHO cells assessed as inhibition of forskolin-induced cAMP production at 1 nM incubated for 90 mins in presence of CP55940 ligand by HitHunter assay relative to control. In kind it is functional, cell-based. The settings on record: filed as agonist.
For assay [8], the target named is T1, Cannabinoid receptor 1. Put plainly: Agonist activity at human CB1 receptor expressed in CHO cells assessed as inhibition of forskolin-induced cAMP production incubated for 90 mins in presence of FM6b ligand by HitHunter assay. In kind it is functional, cell-based.
Assay [9] concerns the target T1, Cannabinoid receptor 1. Put plainly: Agonist activity at human CB1 receptor expressed in CHO cells assessed as inhibition of forskolin-induced cAMP production at 100 nM incubated for 90 mins in presence of FM6b ligand by HitHunter assay relative to control. The settings on record: filed as agonist. In kind it is functional, cell-based.
For assay [10], the target named is T1, Cannabinoid receptor 1. As to the kind of experiment: Agonist activity at human CB1 receptor expressed in CHO cells assessed as inhibition of forskolin-induced cAMP production incubated for 90 mins in presence of GAT211 ligand by HitHunter assay. The format is functional, cell-based.
The target of assay [11] is T1, Cannabinoid receptor 1. Put plainly: Agonist activity at human CB1 receptor expressed in CHO cells assessed as inhibition of forskolin-induced cAMP production at 100 nM incubated for 90 mins in presence of GAT211 ligand by HitHunter assay relative to control. The format is functional, cell-based.
Assay [12] has as its system HepG2. As to the kind of experiment: Cytotoxicity against human HepG2 cells at 0.1 to 100 uM incubated for 24 hrs by MTT assay. Conditions: dose 0.1-100 µM. In kind it is functional, cell-based. For orientation: Tetrazolium dyes change colour on reduction, which living cells bring about.
The test system of assay [13] is HepG2. As to the kind of experiment: Induction of lipid accumulation in human HepG2 cells at 0.1 to 25 uM incubated for 24 hrs by Oil Red O staining based analysis. In kind it is functional, cell-based. The settings on record: dose 0.1-25 µM.
Assay [14] concerns HepG2. As to the kind of experiment: Induction of lipid accumulation in human HepG2 cells assessed as increase in lipolysis at 0.1 to 25 uM incubated for 24 hrs by Oil Red O staining based analysis. The format is functional, cell-based. Conditions: dose 0.1-25 µM.
The test system of assay [15] is HepG2. As to the kind of experiment: Anti-steatosis activity against oleate/palmitate-induced human HepG2 cells assessed as reduction of lipid accumulation incubated for 24 hrs. In kind it is functional, cell-based. The settings on record: dose 0.1-25 µM.
The test system of assay [16] is HepG2. Put plainly: Anti-steatosis activity against oleate/palmitate-induced human HepG2 cells assessed as induction of lipolysis at 0.1 to 25 uM incubated for 24 hrs. The settings on record: dose 0.1-25 µM. In kind it is functional, cell-based.
Assay [17] in a line: Cytotoxicity against mouse BEND3 cells assessed as cell viability at 30 uM incubated for 24 hrs by WST-1 assay. In kind it is functional. Conditions: read-out: Activity.
Assay [18] relates to BEND3. Put plainly: Disruption of monolayer integrity in mouse BEND3 cells assessed as change in TEER modulation after 3 hrs. In kind it is functional, cell-based.
Assay [19] concerns BEND3. As to the kind of experiment: Disruption of monolayer integrity in mouse BEND3 cells assessed as change in TEER modulation at 135 mins. In kind it is functional, cell-based.
For assay [20], the system named is BEND3. Put plainly: Disruption of monolayer integrity in mouse BEND3 cells assessed as change in TEER modulation at 180 mins. The format is functional, cell-based.
For assay [21], the target named is T1, Cannabinoid receptor 1. Put plainly: Agonist activity at human CB1 receptor expressed in CHO cells assessed as inhibition of forskolin-induced cAMP production at 100 nM incubated for 90 mins in presence of CP55940 ligand by HitHunter assay relative to control. The format is functional, cell-based. The settings on record: filed as agonist.
Assay [22] addresses T2, Cannabinoid receptor 2. As to the kind of experiment: Agonist activity at human CB2 receptor expressed in CHO cells assessed as inhibition of forskolin-induced cAMP production incubated for 90 mins in presence of CP55940 ligand by HitHunter assay. In kind it is functional, cell-based.
Assay [23] has as its target T2, Cannabinoid receptor 2. As to the kind of experiment: Agonist activity at human CB2 receptor expressed in CHO cells assessed as inhibition of forskolin-induced cAMP production at 100 nM incubated for 90 mins in presence of CP55940 ligand by HitHunter assay relative to control. The format is functional, cell-based. Conditions: filed as agonist.
The target in assay [24] is T2, Cannabinoid receptor 2. As to the kind of experiment: Agonist activity at human CB2 receptor expressed in CHO cells assessed as inhibition of forskolin-induced cAMP production at 100 nM incubated for 90 mins in presence of FM6b ligand by HitHunter assay relative to control. The settings on record: filed as agonist. In kind it is functional, cell-based.
Assay [25] addresses T2, Cannabinoid receptor 2. Put plainly: Agonist activity at human CB2 receptor expressed in CHO cells assessed as inhibition of forskolin-induced cAMP production incubated for 90 mins in presence of FM6b ligand by HitHunter assay. The format is functional, cell-based.

The record followed here is ChEMBL document CHEMBL6096683, “Novel Orthosteric/Allosteric Ligands of Cannabinoid Receptors: An Unexpected Pharmacological Profile” (J Med Chem, 2025).

The term Emax denotes the size of the effect at its maximum, as opposed to the concentration needed. The term EC50 denotes the concentration at which the effect is half-maximal.

SMILES strings stand for the structures. Active and inactive are the calls of the source. The rule behind the calls is not given here. Where only a bound is given, the exact number is not on record here.

T2 sequence (P34972 whole entry): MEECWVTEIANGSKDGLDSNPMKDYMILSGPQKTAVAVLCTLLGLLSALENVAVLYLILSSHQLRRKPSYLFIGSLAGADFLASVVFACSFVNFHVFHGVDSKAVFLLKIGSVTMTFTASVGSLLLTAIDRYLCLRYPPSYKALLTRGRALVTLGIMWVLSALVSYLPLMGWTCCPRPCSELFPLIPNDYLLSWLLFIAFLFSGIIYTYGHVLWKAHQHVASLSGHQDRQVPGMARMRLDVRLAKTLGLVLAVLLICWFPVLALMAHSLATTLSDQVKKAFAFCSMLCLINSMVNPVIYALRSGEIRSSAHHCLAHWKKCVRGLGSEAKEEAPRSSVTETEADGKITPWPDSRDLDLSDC
T1 sequence (P21554 whole entry): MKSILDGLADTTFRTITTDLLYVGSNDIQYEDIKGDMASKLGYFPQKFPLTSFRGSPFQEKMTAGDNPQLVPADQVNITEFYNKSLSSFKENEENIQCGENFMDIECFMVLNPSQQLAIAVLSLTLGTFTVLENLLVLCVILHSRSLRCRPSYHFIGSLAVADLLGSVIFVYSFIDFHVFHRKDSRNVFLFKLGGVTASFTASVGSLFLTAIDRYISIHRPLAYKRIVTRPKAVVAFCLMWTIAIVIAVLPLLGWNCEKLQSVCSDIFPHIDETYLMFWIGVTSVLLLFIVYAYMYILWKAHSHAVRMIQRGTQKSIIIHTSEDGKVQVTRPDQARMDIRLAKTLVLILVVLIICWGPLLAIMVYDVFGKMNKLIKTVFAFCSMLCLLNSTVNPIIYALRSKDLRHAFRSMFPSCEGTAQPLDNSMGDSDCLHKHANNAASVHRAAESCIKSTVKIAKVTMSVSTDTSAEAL

Turning to `Cc1c(Br)cc(C(=O)NC2CCCCCC2)c(=O)n1CCCCCn1cc(CCCCC(=O)NCC(c2ccccc2)c2c(-c3ccccc3)[nH]c3ccccc23)nn1` (stereo not drawn), the results for the IC50 in assay [1] and in assay [3] (read-out: pIC50 (converted)) were 126 nM and 1000 nM, respectively. The Emax in assay [2] turned out to be 31%; in [4], 201%; in assay [7], 98%; in [9], 83%; in [11] it was 35%. Besides, the result in assay [5], in [12], in assay [13], in assay [14], in [16] and in assay [18] was Active. Besides, the outcome in assay [19] and in assay [20] was Active. Moreover, the EC50 in assay [6] was 1580 nM; in assay [8], 6.31 nM; in assay [10], 126 nM. Moreover, the Activity result in assay [15] is “Dose-dependent-effect”. For the same molecule, the viability at 30 µM in [17] was > 75%.

In the case of `Cc1c(Br)cc(C(=O)NC2CCCCCC2)c(=O)n1CCCCCn1cc(CCCC(=O)NCC(c2ccccc2)c2c(-c3ccccc3)[nH]c3ccccc23)nn1` (stereo not drawn), the IC50 in assay [1] was 15.8 nM; in [3] (read-out: pIC50 (converted)), > 10000 nM. In addition, the Emax in [2] came out at 0.12%; in assay [4] it was 44%; in assay [21], 122%; in assay [9] it was 130%; in assay [11] it was 24%. The outcome in [5] was Active. Besides, the EC50 was 251 nM in [6], 1580 nM in [8] and 5.01 nM in assay [10].

`Cc1c(Br)cc(C(=O)NC2CCCCCC2)c(=O)n1CCCCCn1cc(CCC(=O)NCC(c2ccccc2)c2c(-c3ccccc3)[nH]c3ccccc23)nn1` (stereo not drawn) showed an IC50 in assay [1] of 20 nM. For the same molecule, the maximal effect (Emax) was 42% in assay [2] (filed as agonist); 80% in assay [4]; 58% in assay [21]; 120% in [9]; 1.3% in assay [11]. In addition, the outcome in [5] was Active. Moreover, the EC50 in [6] was 20 nM; in assay [8], 2000 nM; in assay [10] it was 63.1 nM.

On to `Cc1c(Br)cc(C(=O)NC2CCCCCC2)c(=O)n1CCCn1cc(CCC(=O)NCC(c2ccccc2)c2c(-c3ccccc3)[nH]c3ccccc23)nn1` (stereo not drawn), for which the IC50 in [1] was 31.6 nM; in assay [3] (read-out: IC50), 6.3 nM. The Emax in [2] (filed as agonist) was determined as 329%; in assay [4] it was 130%; in [23], 123%; in assay [21], 61%; in assay [24] it was 77%; in assay [9], 150%. Also, the Emax in [11] was found to be 26%. Also, the outcome in [5] was Active. The EC50 was 10 nM in assay [22]; 7.94 nM in assay [6]; 316 nM in assay [25]; 2510 nM in assay [8]; 2 nM in assay [10].

Regarding `O=C1OC2(c3ccc(O)cc3Oc3cc(O)ccc32)c2ccccc21`, the outcome in [19] and in assay [20] was Active.
